# Test results published in US20170073337A1, “DIHYDROTHIAZINE AND DIHYDROOXAZINE DERIVATIVES HAVING BACE1 INHIBITORY ACTIVITY” (Shionogi & Co., Ltd., priority 2014, published 2017).
# Read-outs that look alike come from different tables or passages of the source.
# Assays:
# [1] = biological target: T1, P-gp (MDR1 expressing LLC-PK1 cells) (Homo sapiens, UniProt P08183); assay: P-gp substrate test; type: in vitro ADME; settings: net flux = Efflux Ratio in MDR1 expressing cells / Efflux Ratio in parent LLC-PK1 cells
# T1 construct: host or cells: LLC-PK1
# T1 sequence (P08183 whole entry): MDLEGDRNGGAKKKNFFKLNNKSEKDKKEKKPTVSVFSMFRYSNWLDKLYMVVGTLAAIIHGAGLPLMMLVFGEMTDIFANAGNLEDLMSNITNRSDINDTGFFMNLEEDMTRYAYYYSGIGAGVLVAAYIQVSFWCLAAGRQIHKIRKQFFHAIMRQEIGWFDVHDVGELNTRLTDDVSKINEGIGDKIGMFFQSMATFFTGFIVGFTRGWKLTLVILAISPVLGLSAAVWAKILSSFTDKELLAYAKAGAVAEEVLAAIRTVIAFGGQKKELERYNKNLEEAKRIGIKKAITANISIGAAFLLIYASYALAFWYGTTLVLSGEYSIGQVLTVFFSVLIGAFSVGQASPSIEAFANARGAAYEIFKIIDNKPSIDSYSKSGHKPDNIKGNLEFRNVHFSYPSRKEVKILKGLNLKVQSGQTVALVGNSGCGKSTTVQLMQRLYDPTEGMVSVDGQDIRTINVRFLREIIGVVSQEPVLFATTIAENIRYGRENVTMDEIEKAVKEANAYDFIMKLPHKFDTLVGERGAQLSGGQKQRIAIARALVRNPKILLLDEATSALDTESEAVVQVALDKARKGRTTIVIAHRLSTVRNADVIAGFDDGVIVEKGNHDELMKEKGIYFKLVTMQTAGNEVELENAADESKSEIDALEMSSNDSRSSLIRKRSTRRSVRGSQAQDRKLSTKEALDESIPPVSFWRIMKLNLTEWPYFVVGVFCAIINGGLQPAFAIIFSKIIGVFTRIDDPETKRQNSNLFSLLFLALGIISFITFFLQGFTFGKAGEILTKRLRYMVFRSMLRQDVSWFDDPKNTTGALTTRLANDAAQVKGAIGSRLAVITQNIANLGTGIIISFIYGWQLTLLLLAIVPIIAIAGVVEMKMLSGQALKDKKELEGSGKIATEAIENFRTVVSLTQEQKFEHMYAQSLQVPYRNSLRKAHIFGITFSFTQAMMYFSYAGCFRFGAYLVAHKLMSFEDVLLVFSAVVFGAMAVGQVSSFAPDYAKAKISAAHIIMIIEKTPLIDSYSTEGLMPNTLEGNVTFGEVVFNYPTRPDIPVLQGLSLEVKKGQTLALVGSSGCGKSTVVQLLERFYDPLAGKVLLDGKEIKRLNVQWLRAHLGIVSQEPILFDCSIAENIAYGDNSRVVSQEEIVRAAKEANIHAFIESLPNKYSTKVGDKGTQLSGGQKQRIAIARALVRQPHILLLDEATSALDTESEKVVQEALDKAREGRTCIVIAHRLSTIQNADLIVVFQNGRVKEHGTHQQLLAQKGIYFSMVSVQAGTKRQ
# Procedure: • 1. Cell line: • a. MDR/LLC-PK1 (Becton Dickinson) • b. LLC-PK1 (Becton Dickinson) • 2. Reference substrates: • a Digoxin (2 μM)
# 1. […] After incubation for designed time at 37° C., an aliquot (50 μL) of transport buffer in the donor and receiver side were collected. Assay was performed by duplicate or triplicate. 3. Reference substrate and the present invention in the aliquot was quantified by LC/MS/MS.
# Pc(cm/sec)−Permeated amount (pmol)/area of cell membrane (cm2)/initial concentration (nM)/incubation time (sec)
# The efflux ratio was calculated using the following equation:
# Efflux Ratio=Basolateral-to-Apical Pe/Apical-to-Basolateral Pe
# The net flux was calculated using the following equation
# Net flux=Efflux Ratio in MDK1 expressing cells/Efflux Ratio in parent cells
# CYP2C19 = biological target: T2, CYP2C19 (Homo sapiens, UniProt P33261); assay: CYP inhibition test (CYP2C19); type: in vitro ADME; settings: pooled human liver microsomes; mephenytoin 4′-hydroxylation
# T2 construct: The commercially available pooled human liver microsomes are used as an enzyme resource; from tissue; host or cells: pooled human liver microsomes
# T2 sequence (P33261 whole entry): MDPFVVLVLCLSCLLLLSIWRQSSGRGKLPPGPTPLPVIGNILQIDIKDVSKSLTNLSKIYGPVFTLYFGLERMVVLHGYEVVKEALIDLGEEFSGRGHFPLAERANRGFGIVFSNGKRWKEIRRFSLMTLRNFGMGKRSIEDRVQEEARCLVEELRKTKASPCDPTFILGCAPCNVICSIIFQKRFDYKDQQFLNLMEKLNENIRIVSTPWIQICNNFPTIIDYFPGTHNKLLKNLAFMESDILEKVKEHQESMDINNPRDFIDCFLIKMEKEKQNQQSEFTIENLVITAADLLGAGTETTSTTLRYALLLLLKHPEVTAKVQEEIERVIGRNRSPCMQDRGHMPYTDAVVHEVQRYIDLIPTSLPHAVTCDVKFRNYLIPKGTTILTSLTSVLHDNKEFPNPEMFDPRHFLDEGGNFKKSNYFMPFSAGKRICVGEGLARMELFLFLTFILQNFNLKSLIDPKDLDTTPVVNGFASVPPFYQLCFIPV
# Description: (§1) The CYP inhibition test is a test to assess the inhibitory effect of a compound of the present invention towards typical substrate metabolism reactions on CYP enzymes in human liver microsomes. The marker reactions on human main five CYP enzymes (CYP1A2, 2C9, 2C19, 2D6, and 3A4) are used as follows: 7-ethoxyresorufin O-deethylation (CYP1A2), tolbutamide methyl-hydroxylation (CYP2C9), mephenytoin 4′-hydroxylation (CYP2C19), dextromethorphan O-demethylation (CYP2D6), and terfenadine hydroxylation (CYP3A4). The commercially available pooled human liver microsomes are used as an enzyme resource.
# (§2) The reaction conditions were as follows: substrate, 0.5 μmol/L ethoxyresorufin (CYP1A2), 100 μmol/L tolbutamide (CYP2C9), 50 μmol/L, S-mephenytoin (CYP2C19), 5 μmol/L dextromethorphan (CYP2D6), 1 μmol/L terfenadine (CYP3A4): reaction time, 15 minutes: reaction temperature, 37° C.; enzyme, pooled human liver microsomes 0.2 mg protein/mL; concentrations of the compound of the present invention, 1, 5, 10, 20 μmol/L (four points).
# (§3) Five kinds of substrates, human liver microsomes, and a compound solution of the present invention in […] Hepes buffer were added to a 96-well plate at the composition as described above as a reaction solution. NADPH as a cofactor was added to this 96-well plate in order to initiate metabolism reactions. After the incubation at 37° C.for […], a methanol/acetonitrile=1/1 (v/v) solution was added to stop the reaction. After the centrifugation at 3000 rpm for 15 minutes, resorufin (CYP1A2 metabolite) in the supernatant was quantified by a fluorescent plate reader, and hydroxytolbutamide (CYP2C9 metabolite), 4′-hydroxymephenytoin (CYP2C19 metabolite), dextrorphan (CYP2D6 metabolite), and terfenadine alcohol metabolite (CYP3A4 metabolite) in the supernatant were quantified by LC/MS/MS.
# (§4) The sample adding DMSO to a reaction system instead of compound of the present invention solution was adopted as a control (100%) because DMSO was used as a solvent to dissolve a compound of the present invention. Remaining activity (%) was calculated at each concentration of a compound of the present invention, and IC50 value was calculated by reverse presumption by a logistic model using a concentration and an inhibition rate.
# CYP2C9 = biological target: T3, CYP2C9 (Homo sapiens, UniProt P11712); assay: CYP inhibition test (CYP2C9); type: in vitro ADME; settings: pooled human liver microsomes; tolbutamide methyl-hydroxylation
# T3 construct: The commercially available pooled human liver microsomes are used as an enzyme resource; from tissue; host or cells: pooled human liver microsomes
# T3 sequence (P11712 whole entry): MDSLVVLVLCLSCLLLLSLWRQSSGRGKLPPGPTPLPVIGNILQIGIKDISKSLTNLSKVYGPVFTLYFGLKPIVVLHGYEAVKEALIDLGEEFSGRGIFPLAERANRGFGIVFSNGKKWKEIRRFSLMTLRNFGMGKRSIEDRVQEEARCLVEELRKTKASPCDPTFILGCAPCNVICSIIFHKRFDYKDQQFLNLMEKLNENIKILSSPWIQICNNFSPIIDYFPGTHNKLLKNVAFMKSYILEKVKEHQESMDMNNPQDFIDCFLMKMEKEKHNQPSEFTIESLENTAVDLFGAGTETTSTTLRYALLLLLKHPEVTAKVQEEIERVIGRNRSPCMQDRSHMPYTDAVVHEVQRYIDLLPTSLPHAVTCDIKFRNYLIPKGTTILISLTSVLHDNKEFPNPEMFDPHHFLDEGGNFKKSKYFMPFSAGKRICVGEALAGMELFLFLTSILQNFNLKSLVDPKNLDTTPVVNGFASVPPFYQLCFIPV
# Description: as §1, §2, §3, §4
# Solubility test = type: physicochemical; settings: for solubility kinetic at 1 h: kinetic from dmso stock; for solubility kinetic at 16 h: solubility in JP 2nd fluid B, 1% DMSO, *2: shaken for 1 hour at room temperature
# Procedure: A 10 mmol/L solution of the compound was prepared with DMSO, and 2 μL of the compound of the present invention solution was added, respectively, to 198 μL of JP 1st fluid (water was added to 2.0 g of sodium chloride and 7.0 ml, of hydrochloric acid to reach 1000 mL) and JP 2nd fluid (See Table 4). The mixture was left standing for 16 hours at 25° C. or shaken for 1 hour at ruom temperature, and the mixture was vacuum-filtered. The […] was ten or one hundred-fold diluted with metbanol/water=1/1 (v/v) or MeCN/MeOH/H2O(=1/1/2), and the compound concent ration in the filtrate was measured with LC/MS or solid phase extraction (SPE)/MS by the absolute calibration method.
# [2] = system: Aβ production in neuroblastoma SH-SY5Y cells (SH/APPwt); assay: β-amyloid (Aβ) production inhibitory effect in cell: 384-well; type: cell-based; settings: Homo sapiens, Assay format 384-well
# Procedure: Neuroblastoma SH-SY5Y cells (SH/APPwt) with human wild-type β-APT excessively expressed therein were prepared at 4×10^5 cells/mL, and 50 μl portions thereof were inoculated into each well of a 384-well culture plate (Corning) added 0.5 μl of the test compound of the present invention (DMSO solution). The final DMSO concentration was 1%, and the amount of the cell culture was 50 μl. After the incubation was performed for 21 hours from the cell seeding, 5 μl of the culture supernatant was collected from each fraction. The amount of the Aβ in each fraction was measured.
# The Aβ amount was measured as follows. 5 μl of a homogeneous time resolved fluoresrenee (HTRF) measurement reagent (Amyloid β1-40 peptide; CIS bio international) and 5 μl of the culture supernatant were put into a 384′well plate (a black plate: Corning) and mixed with each other, and then left standing overnight at 4° C. while the light was shielded. Then, the fluorescence intensity (620 nm and 665 nm) was measured with EnViston (Perkin Elmer life sciences).
# CYP1A2 = biological target: T4, CYP1A2 (Homo sapiens, UniProt P05177); assay: CYP inhibition test (CYP1A2); type: in vitro ADME; settings: pooled human liver microsomes; 7-ethoxyresorufin O-deethylation
# T4 construct: The commercially available pooled human liver microsomes are used as an enzyme resource; from tissue; host or cells: pooled human liver microsomes
# T4 sequence (P05177 1-516): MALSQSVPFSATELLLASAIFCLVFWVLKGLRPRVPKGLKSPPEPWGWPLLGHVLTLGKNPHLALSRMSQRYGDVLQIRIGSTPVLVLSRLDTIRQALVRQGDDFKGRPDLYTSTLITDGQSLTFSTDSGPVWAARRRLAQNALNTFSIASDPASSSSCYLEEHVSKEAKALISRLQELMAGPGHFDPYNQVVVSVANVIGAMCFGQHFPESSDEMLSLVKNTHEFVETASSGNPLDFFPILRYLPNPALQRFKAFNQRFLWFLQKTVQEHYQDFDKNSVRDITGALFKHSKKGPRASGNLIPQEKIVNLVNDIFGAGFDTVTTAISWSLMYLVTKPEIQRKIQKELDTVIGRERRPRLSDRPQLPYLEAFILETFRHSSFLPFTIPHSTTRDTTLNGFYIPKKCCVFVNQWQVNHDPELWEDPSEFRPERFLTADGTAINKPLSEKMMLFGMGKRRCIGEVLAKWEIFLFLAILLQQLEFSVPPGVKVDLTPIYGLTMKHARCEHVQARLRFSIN
# Description: as §1, §2, §3, §4
# Recombinant human BACE1 = biological target: T5, Recombinant human BACE1 (Homo sapiens, UniProt P56817); assay: Assay of BACE1 inhibitory activity: 384-well; type: biochemical; settings: Assay format 384-well
# T5 construct: purchased R&D Systems
# T5 sequence (P56817 46-501): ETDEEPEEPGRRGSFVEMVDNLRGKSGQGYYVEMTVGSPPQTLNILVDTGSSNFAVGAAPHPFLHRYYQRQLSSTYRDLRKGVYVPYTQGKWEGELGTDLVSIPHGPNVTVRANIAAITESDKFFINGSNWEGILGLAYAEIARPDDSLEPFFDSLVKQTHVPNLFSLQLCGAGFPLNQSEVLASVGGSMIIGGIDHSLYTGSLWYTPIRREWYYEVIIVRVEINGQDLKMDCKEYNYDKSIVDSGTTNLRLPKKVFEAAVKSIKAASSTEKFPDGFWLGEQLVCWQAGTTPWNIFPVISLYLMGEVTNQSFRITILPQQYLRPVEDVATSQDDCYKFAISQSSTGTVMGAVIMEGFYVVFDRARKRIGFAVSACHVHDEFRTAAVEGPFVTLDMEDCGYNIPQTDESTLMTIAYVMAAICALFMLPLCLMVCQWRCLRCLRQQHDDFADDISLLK
# Procedure: 5 μL of substrate peptide solution (Biotin-XSEVNLDAEFRHDSGC-Eu: X=ε-amino-n-capronic acid, Eu=Europium eryplate) was added to each well of 384-well plate (a black plate: Corning), and after addition of 0.1 μl of the compound of the present invention (DMSO solution) and 5 μl of Recombinant human BACE1 (R&D Systems), the reaction mixture was incubated at 25° C. for 2 hours. The substrate peptide was synthesized by reacting Cryptate TBPCOOH mono SMP (CIS bio international) with Biotin-XSEVNLDAEFRHDSGC (Peptide Institute, Inc.).
# After the incubation for reaction, 10 μl of 8.0 μg/ml Streptavidin-XL665 (CIS bio International) dissolved in phosphate buffer (150 mmol/L K2HPO4-KH2PO4, pH 7.0, 0.008% Triton X-100, 0.8 mol/L KF) was added to each well and left stand at 25° C. for 30 minutes.
# CYP3A4 = biological target: T6, CYP3A4 (Homo sapiens, UniProt P08684); assay: CYP inhibition test (CYP3A4); type: in vitro ADME; settings: pooled human liver microsomes; terfenadine hydroxylation
# T6 construct: The commercially available pooled human liver microsomes are used as an enzyme resource; from tissue; host or cells: pooled human liver microsomes
# T6 sequence (P08684 whole entry): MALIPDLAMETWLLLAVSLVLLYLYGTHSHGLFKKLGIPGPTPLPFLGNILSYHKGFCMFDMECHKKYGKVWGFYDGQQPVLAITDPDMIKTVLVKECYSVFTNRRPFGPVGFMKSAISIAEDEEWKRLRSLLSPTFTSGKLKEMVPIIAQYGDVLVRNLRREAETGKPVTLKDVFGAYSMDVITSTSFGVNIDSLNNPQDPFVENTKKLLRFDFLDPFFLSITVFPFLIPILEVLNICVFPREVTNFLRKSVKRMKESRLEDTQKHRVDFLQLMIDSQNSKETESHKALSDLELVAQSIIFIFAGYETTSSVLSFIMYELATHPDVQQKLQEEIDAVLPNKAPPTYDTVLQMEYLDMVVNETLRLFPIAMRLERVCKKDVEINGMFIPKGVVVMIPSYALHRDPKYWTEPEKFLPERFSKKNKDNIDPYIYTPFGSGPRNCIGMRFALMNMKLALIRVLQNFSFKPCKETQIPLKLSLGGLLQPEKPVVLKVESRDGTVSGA
# Description: as §1, §2, §3, §4
# [3] = biological target: T7, human ether-a-go-go related gene (hERG) channel (Homo sapiens, UniProt Q12809); assay: hERG test; type: cell-based; settings: % inhibition of IKr tail peak current at 3 uM; CHO cells expressing hERG
# T7 construct: expressed in transfected cells; host or cells: CHO cells
# T7 sequence (Q12809 whole entry): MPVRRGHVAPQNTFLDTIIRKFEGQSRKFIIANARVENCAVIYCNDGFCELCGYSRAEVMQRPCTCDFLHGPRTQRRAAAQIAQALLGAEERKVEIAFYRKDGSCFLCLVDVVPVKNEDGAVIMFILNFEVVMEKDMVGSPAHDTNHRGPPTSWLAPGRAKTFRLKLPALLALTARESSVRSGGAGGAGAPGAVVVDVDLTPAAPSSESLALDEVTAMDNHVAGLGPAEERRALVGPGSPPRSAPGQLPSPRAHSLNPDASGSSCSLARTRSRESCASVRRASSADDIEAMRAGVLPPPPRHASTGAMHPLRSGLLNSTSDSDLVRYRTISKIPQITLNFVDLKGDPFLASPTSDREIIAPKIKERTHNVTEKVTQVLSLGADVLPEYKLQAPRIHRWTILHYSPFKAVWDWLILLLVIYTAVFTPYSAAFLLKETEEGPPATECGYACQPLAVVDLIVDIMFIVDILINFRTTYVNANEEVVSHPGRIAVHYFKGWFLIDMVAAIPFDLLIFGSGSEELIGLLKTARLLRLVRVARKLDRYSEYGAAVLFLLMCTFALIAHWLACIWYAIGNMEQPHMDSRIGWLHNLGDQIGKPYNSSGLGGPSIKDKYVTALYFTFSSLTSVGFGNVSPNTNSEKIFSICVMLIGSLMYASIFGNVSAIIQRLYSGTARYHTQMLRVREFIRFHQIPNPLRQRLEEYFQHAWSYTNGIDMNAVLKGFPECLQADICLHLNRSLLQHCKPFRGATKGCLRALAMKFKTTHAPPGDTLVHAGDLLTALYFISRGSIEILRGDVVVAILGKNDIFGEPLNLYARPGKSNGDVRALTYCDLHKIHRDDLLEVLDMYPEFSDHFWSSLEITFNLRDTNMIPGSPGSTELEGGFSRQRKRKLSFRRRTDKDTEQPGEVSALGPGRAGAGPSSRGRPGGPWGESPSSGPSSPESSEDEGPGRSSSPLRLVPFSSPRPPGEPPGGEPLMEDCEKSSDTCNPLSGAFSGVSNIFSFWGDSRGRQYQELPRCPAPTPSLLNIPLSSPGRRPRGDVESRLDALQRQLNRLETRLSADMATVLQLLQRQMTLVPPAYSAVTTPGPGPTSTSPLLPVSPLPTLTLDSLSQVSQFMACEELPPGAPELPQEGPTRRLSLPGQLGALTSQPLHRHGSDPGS
# Description: For the purpose of assessing risk of an electrocardiogram QT interval prolongation, effects on delayed rectifier K+ current (IKr), which plays an important role in the ventricular repolarization process of the compound of the present invention, was studied using CHO cells expressing human ether-a-go-go related gene (hERG) channel.
# A cell was retained at a membrane potential of […] by whole cell patch clamp method using an automated patch clamp system (QPatch:Sophion Bioscience A/S). After application of leak potential at −50 mV, IKr induced by depolarization pulse stimulation at +20 mV for 2 seconds and, further, repolarization pulse stimulation at −50 mV for 2 seconds was recorded.
# CYP2D6 = biological target: T8, CYP2D6 (Homo sapiens, UniProt P10635); assay: CYP inhibition test (CYP2D6); type: in vitro ADME; settings: pooled human liver microsomes; dextromethorphan O-demethylation
# T8 construct: The commercially available pooled human liver microsomes are used as an enzyme resource; from tissue; host or cells: pooled human liver microsomes
# T8 sequence (P10635 whole entry): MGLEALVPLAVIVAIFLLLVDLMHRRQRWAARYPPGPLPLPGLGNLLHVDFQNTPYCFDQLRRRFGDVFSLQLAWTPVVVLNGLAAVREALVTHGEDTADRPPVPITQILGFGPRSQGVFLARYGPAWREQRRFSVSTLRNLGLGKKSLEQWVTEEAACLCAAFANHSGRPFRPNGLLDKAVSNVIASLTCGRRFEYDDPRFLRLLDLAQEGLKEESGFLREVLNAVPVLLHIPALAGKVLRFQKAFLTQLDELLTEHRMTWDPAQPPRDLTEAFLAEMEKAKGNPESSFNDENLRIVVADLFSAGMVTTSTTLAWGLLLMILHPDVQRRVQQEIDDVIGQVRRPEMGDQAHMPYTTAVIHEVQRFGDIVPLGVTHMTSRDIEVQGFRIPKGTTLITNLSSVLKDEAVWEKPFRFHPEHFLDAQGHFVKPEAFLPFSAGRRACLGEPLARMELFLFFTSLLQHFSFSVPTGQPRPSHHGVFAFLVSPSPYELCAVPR
# Description: as §1, §2, §3, §4
# Metabolic stability test = type: in vitro ADME; settings: human liver microsomes, 37° C., 30 minutes, NADPH
# Procedure: Using a commercially available pooled human liver microsomes, a compound of the present invention was reacted for a constant time, a remaining rate was calculated by comparing a reacted sample and an unreacted sample, thereby, a degree of metabolism in liver was assessed.
# A reaction was performed (oxidative reaction) at 37° C. for 0 minute or 30 minutes in the presence of 1 mmol/L NADPH in 0.2 mL of a buffer (60 mmol/L Tris-HCl pH 7.4, 150 mmol/L potassium chloride, 10 mmol/L magnesium chloride) containing 0.5 mg protein/mL of human liver microsomes. After the reaction, 50 μL of the reaction solution was added to 100 μL of a methanol/acetonltrile=1/1 (v/v), mixed and centrifuged at 3000 rpm for 15 minutes. The compound of the present invention in the supernatant was quantified by LC/MS/MS or solid phase extraction (SPE)/MS, and a remaining amount of the compound of the present invention after the reaction area calculated, letting a compound amount at 0 minute reaction time to be 100%.
# [4] = JP 1st fluid, pH 1.2, simulated gastric fluid, read-out: JP1
# [5] = JP 2nd fluid B, pH 6.8, aqueous buffer, read-out: JP2_μM
SMILES,ER ratio (Cell: MDR1/LLC-PK1) [1],IC50 (CYP2C19) [nM],IC50 (CYP2C9) [nM],solubility kinetic at 1 h (Solubility test; [4]) [µM],solubility kinetic at 16 h (Solubility test; read-out: JP2_μM) [µM],IC50 [2] [nM],IC50 (CYP1A2) [nM],IC50 (Recombinant human BACE1) [nM],IC50 (CYP3A4) [nM],IC50 (CYP2D6) [nM],solubility kinetic at 1 h (Solubility test; [5]) [µM],remaining % (Metabolic stability test) [%],hERG_3 uM_% [3] [%]
Cc1cc(C#N)cnc1C(=O)Nc1ccc(F)c([C@@]2(C)N=C(N)SCC23CC(F)(F)C3)c1 [Compound I-60],1.4,≥ 20000,≥ 20000,> 50,>50,0.29,≥ 20000,6.62,–,–,–,–,–
COCC(F)(F)[C@H]1OC(N)=N[C@](C)(c2cc(NC(=O)c3ccc(C#N)cn3)ccc2F)[C@H]1F [Compound I-78],–,≥ 20000,≥ 20000,> 50,>50,6.7,≥ 20000,7.35,≥ 10000,≥ 10000,–,–,39.6
COc1ccc(C(=O)Nc2ccc(F)c([C@@]3(C)N=C(N)SCC34CC(F)(F)C4)c2)nc1 [Compound I-57],0.6,≥ 20000,≥ 20000,> 50,>50,0.68,≥ 20000,16.1,≥ 10000,–,–,–,–

# The remaining molecules from weak to strong by IC50 [2], led by results:
ER ratio (Cell: MDR1/LLC-PK1) [1],IC50 (CYP2C19) [nM],IC50 (CYP2C9) [nM],solubility kinetic at 1 h (Solubility test; [4]) [µM],solubility kinetic at 16 h (Solubility test; read-out: JP2_μM) [µM],IC50 [2] [nM],IC50 (CYP1A2) [nM],IC50 (Recombinant human BACE1) [nM],IC50 (CYP3A4) [nM],IC50 (CYP2D6) [nM],solubility kinetic at 1 h (Solubility test; [5]) [µM],remaining % (Metabolic stability test) [%],SMILES,hERG_3 uM_% [3] [%]
1.9,–,–,> 50,–,7.2,–,13,–,–,38.6,91,C[C@H]1SC(N)=N[C@](C)(c2cc(NC(=O)c3ccc(OCC(F)(F)F)cn3)ccc2F)[C@H]1F [Compound I-54],37.7
–,≥ 20000,≥ 10000,42.1,–,1.1,≥ 20000,22.5,≥ 20000,≥ 10000,> 50,81.1,C[C@H]1SC(N)=N[C@](C)(c2cc(NC(=O)c3ncc(C#N)cc3F)ccc2F)[C@H]1F [Compound I-110],–
–,≥ 20000,≥ 20000,47.3,–,0.74,≥ 20000,30.5,≥ 20000,≥ 20000,> 50,56.8,Cc1cc(C#N)cnc1C(=O)Nc1cccc([C@@]2(C)N=C(N)S[C@H](C)[C@@H]2F)c1 [Compound I-105],–
